Values after ≈ are worked out from the molar mass of the structure shown.
Experiments:
[1] = tested on: T lymphocyte activation antigens; experiment: whole blood assay: expression of T lymphocyte activation antigens; format: cell-based, cynomolgous monkeys; details: mitogen stimulated
Protocol: (§1) Lymphocyte proliferation was assessed by tritium-labeled thymidine incorporation and by flow-cytometric analysis of expression of proliferating cell nuclear antigen (PCNA) on cells in SG2M phase. Flow cytometry was also used to assess production of intracellular cytokines by T cells and expression of T lymphocyte activation antigens.

[2] = pharmacokinetics in the rabbit model (i.v.); format: in vivo; details: for Area under the curve, mean ± SD / Cmax, mean ± SD: 10 mg/kg/day i.v.
Protocol: (§3) On Days 1 and 7, blood samples were collected prior to drug administration and at 0.5, 1, 2, 4, 8, 12, 18, and 24 hours post-dose to generate a pharmacokinetic profile. Other evaluated parameters included clinical observations, body weight, food consumption, hematology, clinical chemistry, gross pathology, and histopathological examination of selected tissues/organs.
Blood samples were analyzed via high performance liquid chromatography coupled with mass spectrometry (LCMS).

[3] = repeated-dose oral toxicity studies; format: in vivo, rats, dogs, and primates
lymphocyte proliferation = experiment: whole blood assay: lymphocyte proliferation; format: cell-based, cynomolgous monkeys; details: mitogen stimulated
Protocol: as §1

[4] = 30-day toxicokinetic/toxicity study in the rabbit model
Protocol: as §3

micronucleus = experiment: in vivo rat micronucleus assay
Description: (§2) No carcinogenicity studies have been completed to date.

[5] = tested on: antigen-induced arthritis; experiment: antigen-induced arthritis model; format: in vivo, rabbit
Protocol: New Zealand White rabbits, maintained under specific pathogen free conditions, were immunized with 10 mg of ovalbumin in saline emulsified with Freund's complete adjuvant that was given intramuscularly and subcutaneously into several sites in the nape of the neck. Fourteen days later, all animals started receiving 2 daily intra-articular injections of 5 mg ovalbumin and 65 ng of human recombinant transforming growth factor 2 in saline.
Animals assigned to the treatment protocol (8/group) were dosed starting on the day of disease onset (˜Day 28) until sacrifice on Day 42.
Evaluated parameters included mortality, body weight, serum creatinine, histology, and outcome assessments such as knee joint swelling, synovial fluid counts, gross postmortem analysis, and histology.

Mouse Islet Allografts = experiment: islet cell allotransplantation in diabetic mice
Description: Blood glucose was monitored daily until the time of graft failure, as defined by a glucose level greater than 17 mmol/L on two consecutive days.

[6] = tested on: production of intracellular cytokines by T cells; experiment: whole blood assay: intracellular cytokine production by T cells; format: cell-based, cynomolgous monkeys; details: mitogen stimulated
Protocol: as §1

[7] = reproductive toxicity studies; format: in vivo, pregnant rats and rabbits
Description: as §2

chromosome aberration = experiment: in vitro chromosome aberration assay; format: cell-based
Description: as §2

[8] = tested on: bacterial reverse mutation; experiment: in vitro bacterial reverse mutation assay; format: cell-based
Description: as §2

[9] = tested on: calcineurin phosphatase activity; experiment: calcineurin (CN) inhibition assay; format: biochemical; details: FIG. 11; ISATX247 isomer mixture
Description: The use of cyclosporine derivatives, a class of cyclic polypeptides produced by the fungus Tolypocladium inflatum Gams, is increasing in immunosuppressive therapy due to their preferential effects on T-cell mediated reactions. […] This action is primarily mediated through cyclosporine A-induced inhibition of calcineurin, a phosphatase enzyme found in the cytoplasm of cells (Schreiber and Crabtree, 1992).

Transplanted Rat Hearts = experiment: rat heart transplant model (heterotopic, Wistar Furth to Lewis); format: in vivo
Description: If graft dysfunction was noted during the 30-day post-transplantation period, the animal was sacrificed. If the animal survived longer than 30 days post-transplantation, the test and control articles were discontinued and the animal was allowed to continue until graft dysfunction or up to 100 days post-transplantation.

[10] = tested on: collagen-induced arthritis; experiment: collagen-induced arthritis model; format: in vivo, mouse
Protocol: Male DBA/1 Lac J mice, kept under virus antibody free conditions, were immunized subcutaneously at 8 to 10 weeks of age with 100 microgram of chick type II collagen, emulsified in Freund's complete adjuvant. […] Animals assigned to the treatment protocol (12/group) were dosed starting on the day of disease onset (˜Day 28) until sacrifice on Day 38.
Evaluated parameters included mortality, serum creatinine, histology, and outcome assessments, such as clinical scoring (visual), hind paw swelling, histological scoring, erosion scoring, and immunohistochemistry.
Erosion scoring was done in a blinded manner by examining sagittal sections of the proximal interphalangeal (PIP) joint of the middle digit for the presence or absence of erosions (defined as demarcated defects in cartilage or bone filled with inflammatory tissue). This approach allowed for comparisons of the same joint.

**Q.** Which results are given for `C=C/C=C/C[C@@H](C)[C@@H](O)[C@H]1C(=O)N[C@@H](CC)C(=O)N(C)CC(=O)N(C)[C@@H](CC(C)C)C(=O)N[C@@H](C(C)C)C(=O)N(C)[C@@H](CC(C)C)C(=O)N[C@@H](C)C(=O)N[C@H](C)C(=O)N(C)[C@@H](CC(C)C)C(=O)N(C)[C@@H](CC(C)C)C(=O)N(C)[C@@H](C(C)C)C(=O)N1C` [ISATX247]?
**A.** EC50, CD 11a expression [1]: 0.2044 µg/mL (≈ 0.168 µM); EC50, CD 25 expression [1]: 0.121 µg/mL (≈ 0.0996 µM); EC50, CD 71 expression [1]: 0.14984 µg/mL (≈ 0.123 µM); EC50, CD 95 expression [1]: 0.12998 µg/mL (≈ 0.107 µM); EC50, CD 154 expression [1]: 0.16087 µg/mL (≈ 0.132 µM); pharmacokinetic parameters in female rabbits compared with male rabbits ([2]; 10 mg/kg/day, exception: maximum concentration on Day 7): not significantly different; pharmacokinetic parameters compared with cyclosporine A ([2]; male rabbits, 10 mg/kg/day): no statistically significantly differences; Area under the curve, mean ± SD ([2]; male rabbits, Day 1): 5659 ± 1309 ng·h/mL; Cmax, mean ± SD ([2]; male rabbits, Day 1): 1915 ± 149 ng/mL; Area under the curve, mean ± SD ([2]; male rabbits, Day 7): 5697 ± 1373 ng·h/mL; Cmax, mean ± SD ([2]; male rabbits, Day 7): 1959 ± 470 ng/mL; only toxicological effect noted in all species [3]: diarrhea/loose feces; tolerability ([3]; rats, dogs, primates): well-tolerated; EC50, 3H-thymidine uptake (lymphocyte proliferation): 0.16054 µg/mL (≈ 0.132 µM); EC50, PCNA expression (lymphocyte proliferation; flow cytometry): 0.19772 µg/mL (≈ 0.163 µM); examination of organs ([4]; 5 mg/kg): no significant abnormalities; examination of organs ([4]; 10 mg/kg): no significant abnormalities; increase in serum creatinine levels ([4]; 15 mg/kg/day): did not result in any significant increase; examination of organs ([4]; 3 female rabbits that completed the study, 15 mg/kg): No changes; Percent Change in Serum Creatine Levels Over Baseline ([4]; male rabbits, 10 mg/kg, Day 15): +1%; Percent Change in Serum Creatine Levels Over Baseline ([4]; male rabbits, 10 mg/kg, Day 30): +10%; examination of organs: spermatogenesis ([4]; male rabbits, 15 mg/kg): a decrease in spermatogenesis; Percent Change in Serum Creatine Levels Over Baseline ([4]; male rabbits, 15 mg/kg, Day 15): −19%; Percent Change in Serum Creatine Levels Over Baseline ([4]; male rabbits, 15 mg/kg, Day 30): −11%; hematological parameters ([4]; rabbit, in vivo): No significant changes; mutagenic activity (micronucleus): does not exhibit mutagenic activity; synovial fluid counts ([5]; prevention protocol): significant reductions; synovial histopathological scores compared to vehicle control ([5]; prevention protocol, after 28 days of therapy, s.c.): significant decrease; macroscopic arthritis score ([5]; rabbit, in vivo): significant reduction; potency compared with cyclosporine A in treatment and prevention of arthritis ([5]; rabbit, in vivo): equivalent or potentially more potent than cyclosporine A; synovial histopathological scores of animals with established arthritis compared to vehicle controls ([5]; treatment protocol, 14 days of treatment): Significant amelioration; Mean Survival (Mouse Islet Allografts; 1.75 mg/kg/day i.p.): 18.7; Mean Survival (Mouse Islet Allografts; 10 mg/kg/day i.p.): 19.2; Mean Survival (Mouse Islet Allografts; 25 mg/kg/day i.p.): 46.4; toxicity compared with cyclosporine A as the dose level increased (Mouse Islet Allografts; especially apparent at 25 mg/kg/day): less toxic than cyclosporine A; EC50, IFN-production [6]: 0.10267 µg/mL (≈ 0.0845 µM); EC50, IL-2 production [6]: 0.10335 µg/mL (≈ 0.0851 µM); EC50, TNF-production [6]: 0.09058 µg/mL (≈ 0.0746 µM); embryotoxicity ([7]; at doses that resulted in maternal toxicity): corresponding embryotoxicity was observed; treatment-related malformations or alterations ([7]; pregnant rats and rabbits): no treatment-related malformations or alterations; mutagenic activity (chromosome aberration): does not exhibit mutagenic activity; mutagenic activity [8]: does not exhibit mutagenic activity; potency of inhibition of calcineurin phosphatase activity compared to cyclosporine A (as determined by IC50) [9]: ≤ 3 fold; increase of survival time over Cyclosporine A (Transplanted Rat Hearts; 1.75 mg/kg/day): approximately 3 fold; graft function after discontinuation of dosing (Transplanted Rat Hearts; 100 days post-transplant (70 days post discontinuation of dosing)): still had functioning grafts at 100 days post-transplant; negative erosion scores compared to vehicle group ([10]; 250 μg/mouse i.p.): higher negative erosion scores; development of joint erosions (PIP joints) ([10]; 500 μg/mouse): significantly prevent; negative erosion scores compared to vehicle group ([10]; 500 μg/mouse i.p.): significantly higher
